The record followed here is PubChem BioAssay (NCI).

SMILES strings stand for the structures.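 Compound exposure: 48 hours, 5 concentrations, 96-well plates. TGI is the concentration that stops growth completely.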

Among the test systems are M14 melanoma; 786-0 renal; NCI-H522 lung; COLO 205 colon; OVCAR-3 ovarian; SF-295 CNS; CAKI-1 renal; MDA-MB-435; UO-31 renal; SNB-75 CNS; RPMI-8226 leukemia; SK-MEL-2 melanoma; NCI-H226 lung; SK-MEL-28 melanoma; IGROV1 ovarian; UACC-257 melanoma; SF-539 CNS; LOX IMVI melanoma; MCF7 breast.
Holding throughout (assay): inhibition of tumour cell growth, NCI panel, 48 h

Consider `CCSC1=N/C(=C\c2ccco2)C(NN)=N1`, for which the TGI in the experiment on M14 melanoma, with 786-0 renal, in the experiment with NCI-H522 lung, in the experiment with COLO 205 colon, with OVCAR-3 ovarian and in the experiment on SF-295 CNS was over 50 µM in each case. Also, the TGI in the experiment on CAKI-1 renal, in the experiment with MDA-MB-435, in the experiment on UO-31 renal, in the experiment with SNB-75 CNS, in the experiment with RPMI-8226 leukemia and in the experiment on SK-MEL-2 melanoma was over 50 µM in each case. Further, the TGI with NCI-H226 lung, in the experiment with SK-MEL-28 melanoma, in the experiment with IGROV1 ovarian, in the experiment on UACC-257 melanoma, in the experiment on SF-539 CNS and with LOX IMVI melanoma was over 50 µM in each case.

With `Oc1cccc(-c2ccc3c4c2O[C@H]2c5[nH]c6ccccc6c5C[C@@]5(O)[C@@H](C3)N(CC3CC3)CC[C@]425)c1`, the TGI in the experiment with M14 melanoma came to 3.07 µM; with 786-0 renal, 2.97 µM; with COLO 205 colon it was 5.92 µM; in the experiment with OVCAR-3 ovarian, 3.42 µM; with SF-295 CNS, 3.21 µM; in the experiment with CAKI-1 renal, 3.41 µM. Moreover, the TGI in the experiment with MDA-MB-435 was 3.1 µM; with UO-31 renal, 3.03 µM; with SK-MEL-2 melanoma, 5.13 µM; with NCI-H226 lung, 28.9 µM; with IGROV1 ovarian it was 3.12 µM; in the experiment on SF-539 CNS, 3.14 µM. This molecule also had a TGI in the experiment on LOX IMVI melanoma of 3.19 µM.

Take `CCCCC(C(=O)N/N=C/c1ccc([N+](=O)[O-])o1)C(=O)N/N=C/c1ccc([N+](=O)[O-])o1`: the TGI is 13.6 µM in the experiment with M14 melanoma; 5.5 µM with 786-0 renal; 14.7 µM with COLO 205 colon; 5.65 µM in the experiment on OVCAR-3 ovarian; 31.4 µM in the experiment on SF-295 CNS; 14.7 µM in the experiment on CAKI-1 renal. Also, the TGI turned out to be 25.2 µM with MDA-MB-435; 4.6 µM in the experiment with UO-31 renal; 33.5 µM with SNB-75 CNS; 3.18 µM in the experiment with RPMI-8226 leukemia; 36.1 µM in the experiment on SK-MEL-2 melanoma; 5.1 µM in the experiment with NCI-H226 lung. Also, the TGI turned out to be 14.7 µM in the experiment on SK-MEL-28 melanoma; 4.22 µM in the experiment on IGROV1 ovarian; 22.4 µM in the experiment on MCF7 breast; 35.5 µM with SF-539 CNS; 5.92 µM with LOX IMVI melanoma.

Take `O=C(CSc1nnc(Cc2ccccc2)o1)Nc1cccc(Cl)c1`: the TGI in the experiment on M14 melanoma, with 786-0 renal, in the experiment with NCI-H522 lung, with COLO 205 colon, with OVCAR-3 ovarian and in the experiment with SF-295 CNS was over 100 µM in each case. The TGI was over 100 µM in the experiment with CAKI-1 renal; over 100 µM in the experiment with UO-31 renal; 89.5 µM in the experiment with SNB-75 CNS; over 100 µM in the experiment on RPMI-8226 leukemia; over 100 µM with SK-MEL-2 melanoma; over 100 µM in the experiment with NCI-H226 lung. Besides, the TGI in the experiment on SK-MEL-28 melanoma, in the experiment with IGROV1 ovarian, with UACC-257 melanoma, in the experiment with SF-539 CNS and with LOX IMVI melanoma was over 100 µM in each case.

As for `N#CC1(C#N)NC(c2cccnc2)C(C#N)(C#N)NC1c1cccnc1` (stereo not given), the TGI in the experiment on M14 melanoma, in the experiment with 786-0 renal, in the experiment on COLO 205 colon, with OVCAR-3 ovarian, with SF-295 CNS and with CAKI-1 renal was over 100 µM throughout. In addition, the TGI in the experiment with MDA-MB-435, with SNB-75 CNS, in the experiment with RPMI-8226 leukemia, in the experiment with SK-MEL-2 melanoma, with NCI-H226 lung and in the experiment with SK-MEL-28 melanoma was over 100 µM each time. The TGI in the experiment on IGROV1 ovarian, in the experiment on MCF7 breast, in the experiment on UACC-257 melanoma, with SF-539 CNS and in the experiment with LOX IMVI melanoma was over 100 µM each time.

In the case of `Cc1ccc(-c2cc(-c3ccc(Cl)cc3)nc(/N=C3\C(=O)N(CN4CCOCC4)c4ccccc43)n2)cc1`, the TGI in the experiment with M14 melanoma is 87.4 µM; in the experiment with 786-0 renal, 74.3 µM; in the experiment on NCI-H522 lung, 30.1 µM; with COLO 205 colon, 79.8 µM; in the experiment with OVCAR-3 ovarian it was over 100 µM; in the experiment with SF-295 CNS, over 100 µM. Also, the TGI was 80 µM in the experiment on CAKI-1 renal; 35 µM in the experiment on MDA-MB-435; 70.2 µM with SNB-75 CNS; 37.2 µM with SK-MEL-2 melanoma; 89.9 µM with NCI-H226 lung; over 100 µM in the experiment with SK-MEL-28 melanoma. Also, the TGI is 39.3 µM with IGROV1 ovarian; over 100 µM in the experiment on MCF7 breast; 46.4 µM in the experiment on UACC-257 melanoma; 36.5 µM in the experiment on SF-539 CNS; 50.5 µM in the experiment with LOX IMVI melanoma.

`O=c1cc(-c2ccccc2)oc2cc(OCC(O)COc3ccc4c(=O)cc(-c5ccccc5)oc4c3)ccc12`: the TGI in the experiment on M14 melanoma was over 100 µM; in the experiment on 786-0 renal it was 52 µM; in the experiment on NCI-H522 lung, over 100 µM; in the experiment with OVCAR-3 ovarian, over 100 µM; in the experiment with SF-295 CNS, over 100 µM; with CAKI-1 renal, over 100 µM. Further, the TGI was over 100 µM in the experiment on UO-31 renal; over 100 µM with RPMI-8226 leukemia; 53.4 µM in the experiment on SK-MEL-2 melanoma; over 100 µM in the experiment on SK-MEL-28 melanoma; over 100 µM in the experiment with IGROV1 ovarian; over 100 µM in the experiment with UACC-257 melanoma. Besides, the TGI in the experiment on SF-539 CNS was 57 µM; with LOX IMVI melanoma, over 100 µM.

`NC1OC(COC(=O)c2ccccc2)C(O)C(OC(=O)c2ccccc2)C1OC(=O)c1ccccc1` (stereo not given): the TGI with M14 melanoma worked out at 58.1 µM; with 786-0 renal, 30.3 µM; in the experiment with NCI-H522 lung it was 58.5 µM; in the experiment with COLO 205 colon, 50.3 µM; in the experiment with OVCAR-3 ovarian, 75.5 µM; with SF-295 CNS, 33.6 µM. For the same molecule, the TGI was 46.7 µM in the experiment on MDA-MB-435; 94.2 µM in the experiment on UO-31 renal; 39.8 µM in the experiment on SNB-75 CNS; over 100 µM in the experiment on RPMI-8226 leukemia; 96.7 µM in the experiment with SK-MEL-2 melanoma; 43.1 µM in the experiment with NCI-H226 lung. In addition, the TGI in the experiment with SK-MEL-28 melanoma was determined as 42.7 µM; in the experiment on IGROV1 ovarian it was 35.9 µM; with MCF7 breast it was 68.2 µM; with UACC-257 melanoma it was 47.2 µM; in the experiment with LOX IMVI melanoma, 34.7 µM.
